Source: patent US7235258B1, “Sustained-release formulations for treating CNS-mediated disorders” (NPS Pharmaceuticals, Inc., priority 1999, dated 2007)
Read-outs that look alike come from different tables or passages of the source.

Tests used:
[1] = Ascending single oral dose pharmacokinetic study of isovaleramide (oral solution) in healthy subjects; format: in vivo, human; conditions: for half-life / Cmax / CL/F: human; for CL/F: arithmetic mean
Description: (§1) Isovaleramide (NPS 1776) was orally administered in a double-blind, placebo-controlled, ascending single dose study conducted in two groups of healthy young male Caucasian subjects and one group of healthy young female Caucasian subjects to investigate the safety, tolerability, pharmacodynamics and pharmacokinetics of the drug. Various amounts of the drug were dissolved in 250 mL of a flavored soft drink (powdered soft drink diluted in mineral water) and administered as an oral solution.
Isovaleramide administered orally in the absence of a sustained-release formulation was rapidly absorbed and rapidly eliminated in human subjects (Table 1). Systemic exposure to the drug increased with increasing oral doses from 100 to 1600 mg in male subjects.

[2] = Safety and tolerability in the ascending single oral dose study; format: in vivo, human
Description: as §1
The most common adverse events were polyuria and headache. There were no dose-related trends in the incidence or severity of adverse events, or any difference in the incidence or severity of adverse events reported. Similar results were obtained in a 1200 mg dose level female group administered the drug for gender comparison.

[3] = Water solubility of the drug (statement); format: physicochemical

## CC(C)CC(N)=O [Isovaleramide]
[1]; 1200 mg dose, assumed effective target concentration about 10 μg/mL
  time at which blood level falls below the effective concentration: about 5 hours
[1]; female, plasma, females, oral, 1200 mg, read-out: t½ (converted)
  half-life: 1.89 h
[1]; blood, oral, 1200 mg, read-out: initial maximum blood concentration (Cmax)
  Cmax: ~27000 ng/mL
[1]; plasma, humans, oral, no sustained-release formulation, doses 100 to 1600 mg, read-out: half-life (converted)
  half-life: ~2.5 h
[1]; plasma, male humans, oral, 100 mg
  CL/F: 3.83 mL/min/kg
[1]; plasma, male humans, oral, 100 mg, geometric mean, read-out: Cmax
  Cmax: 1510 ng/mL
[1]; plasma, male humans, oral, 100 mg, harmonic mean, read-out: t1/2 (converted)
  half-life: 2.7 h
[1]; plasma, male humans, oral, 200 mg
  CL/F: 3.08 mL/min/kg
[1]; plasma, male humans, oral, 200 mg, geometric mean, read-out: Cmax
  Cmax: 3320 ng/mL
[1]; plasma, male humans, oral, 200 mg, harmonic mean, read-out: t1/2 (converted)
  half-life: 2.61 h
[1]; plasma, male humans, oral, 400 mg
  CL/F: 3.13 mL/min/kg
[1]; plasma, male humans, oral, 400 mg, geometric mean, read-out: Cmax
  Cmax: 6840 ng/mL
[1]; plasma, male humans, oral, 400 mg, harmonic mean, read-out: t1/2 (converted)
  half-life: 2.5 h
[1]; plasma, male humans, oral, 800 mg
  CL/F: 2.73 mL/min/kg
[1]; plasma, male humans, oral, 800 mg, geometric mean, read-out: Cmax
  Cmax: 16400 ng/mL
[1]; plasma, male humans, oral, 800 mg, harmonic mean, read-out: t1/2 (converted)
  half-life: 2.35 h
[1]; plasma, male humans, oral, 1200 mg
  CL/F: 2.47 mL/min/kg
[1]; plasma, male humans, oral, 1200 mg, geometric mean, read-out: Cmax
  Cmax: 27900 ng/mL
[1]; plasma, male humans, oral, 1200 mg, harmonic mean, read-out: t1/2 (converted)
  half-life: 2.43 h
[1]; plasma, male humans, oral, 1600 mg
  CL/F: 2.17 mL/min/kg
[1]; plasma, male humans, oral, 1600 mg, geometric mean, read-out: Cmax
  Cmax: 39300 ng/mL
[1]; plasma, male humans, oral, 1600 mg, harmonic mean, read-out: t1/2 (converted)
  half-life: 2.65 h
[1]; humans, oral, all doses
  time to maximum drug concentration: less than one hour
  time to maximum drug concentration, typical: about 30 minutes
[1]; male subjects, oral, 100 to 1600 mg
  increase in Cmax and AUC relative to increase in dose level: slightly greater than proportional
[1]; single dose, for a 2.5-hour half-life
  change in drug concentration in the blood over a 12-hour period: about 10 fold
[2]; all dose levels
  changes in vital signs, 12-lead ECG, clinical laboratory assessments or physical examination: no clinically significant drug-or dose-related changes
[2]; oral 100 to 1600 mg, healthy male subjects
  tolerability: well tolerated
[2]; oral 100 to 1600 mg, few events, most common polyuria and headache
  severity of drug-related adverse events: all were mild in severity
[3]
  water solubility: very water soluble
